In patent US20030152500A1, “Rotor-stator apparatus and process for the formation of particles” (priority 2001, published 2003):

Key:
[1] = Primary crystal/particle size by image analysis; format: physicochemical; settings: Example 8: 15% (w/w) glycine 14 mL/min, ethanol 190 mL/min, anhydrous ethanol quench
Method: The same procedure as in Example 7 was used, except the feed rate of the 15% (w/w) aqueous glycine solution was 14 mL/min and the feed rate of the anhydrous ethanol antisolvent was 190 mL/min. A quenching solution of anhydrous ethanol (>99%) was used.
Salicylic acid […] was dissolved in anhydrous ethanol (>99%) at a concentration of 24.8% (w/w). This solution was fed to the same apparatus as configured in Example 1. Water was co-fed as the antisolvent.

[2] = Crystal size of rotor-stator exit stream observed under videomicroscope

mean size of primary crystals [1]: 4.4 μm
mean size of crystals ([2]; Example 1: 5% (w/w) aqueous glycine 190 mL/min, ethanol 190 mL/min, 10,000 rpm, quench 50% water 50% ethanol): 25 μm
mean size of crystals ([2]; Example 3: as Example 1, rotor-stator speed 5,000 rpm): 40 μm
mean size of crystals ([2]; Example 4: as Example 1, 15% (w/w) glycine solution): 40 μm
mean size of crystals ([2]; Example 5: as Example 1, 15% (w/w) glycine, 5,000 rpm): 70 μm
mean length of crystals ([2]; Example 6: as Example 1, 15% (w/w) glycine, 0 rpm): 300 μm
mean size of crystals ([2]; Example 7: 15% (w/w) glycine 21 mL/min, ethanol 190 mL/min): 6 μm
Structure (SMILES): NCC(=O)O [glycine, Glycine]
